Each compound was assayed against T1, acetylcholine muscarinic M1 receptor (Homo sapiens, UniProt P11229) (assay: muscarinic FLIPR assay: intracellular calcium in CHOnfat/hM1 cells, potentiation of EC20 acetylcholine). Conditions: M1 Pot., Table 2; CHOnfat/hM1 cells, FLIPR, EC20 acetylcholine (3 nM final).
T1 construct: expressed in transfected cells; host or cells: CHOnfat cells (CHO cells with an NFAT reporter) expressing hM1, kept under Geneticin selection
T1 sequence (P11229 1-460): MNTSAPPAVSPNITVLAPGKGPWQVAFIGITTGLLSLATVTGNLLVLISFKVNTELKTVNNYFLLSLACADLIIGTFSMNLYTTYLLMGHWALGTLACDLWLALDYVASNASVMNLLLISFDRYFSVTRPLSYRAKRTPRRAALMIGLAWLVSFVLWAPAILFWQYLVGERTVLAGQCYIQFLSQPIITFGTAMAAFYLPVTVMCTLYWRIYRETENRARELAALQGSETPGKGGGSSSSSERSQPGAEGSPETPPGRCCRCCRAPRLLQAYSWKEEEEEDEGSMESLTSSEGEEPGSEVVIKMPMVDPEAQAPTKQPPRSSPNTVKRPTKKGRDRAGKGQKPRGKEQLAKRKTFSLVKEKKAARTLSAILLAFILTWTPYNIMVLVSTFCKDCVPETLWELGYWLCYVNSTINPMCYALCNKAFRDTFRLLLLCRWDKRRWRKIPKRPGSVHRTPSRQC
Type: cell-based
How it was run: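 CHOnfat cells stably expressing human M1, Fluo-4AM-loaded, in HBSS with 20 mM HEPES, 2.5 mM probenecid, 1% BSA. Compounds preincubated 4 min (printed "4 mM") before an EC20 acetylcholine challenge (3 nM final). FLIPR intracellular Ca²⁺ signal compared with 3 nM acetylcholine alone to detect potentiation.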

For `CC1CCN(Cc2cc3c(c4ncccc24)CN([C@H]2CCCC[C@@H]2O)C3=O)CC1` [Example 87, 8-[(1S,2S)-2-hydroxycyclohexyl]-5-[(4-methylpiperidin-1-yl)methyl]-8,9-dihydro-1H-pyrrolo[3,4-h]quinolin-7-one], the EC50 was 200 nM.

Same assay, conditions: Table 1; CHOnfat/hM1 cells, FLIPR, EC20 acetylcholine (3 nM final); read-out: M1 Pot.

In order of rising EC50:
1. O=C1c2cc(CN3CCN(c4cccnc4)CC3)c3ccccc3c2CN1[C@H]1CCCC[C@@H]1O [Example 76, 2-[(1S,2S)-2-hydroxycyclohexyl]-5-[(4-pyridin-3-ylpiperazin-1-yl)methyl]-1,2-dihydro-3H-benzo[e]isoindol-3-one]  37 nM
2. O=C1c2cc(CN3CCN(c4ccccn4)CC3)c3ccccc3c2CN1[C@H]1CCCC[C@@H]1O [Example 74, 2-[(1S,2S)-2-hydroxycyclohexyl]-5-[(4-pyridin-2-ylpiperazin-1-yl)methyl]-1,2-dihydro-3H-benzo[e]isoindol-3-one]  46 nM
3. CS(=O)(=O)c1ccc(N2CCN(Cc3cc4c(c5ccccc35)CN([C@H]3CCCC[C@@H]3O)C4=O)CC2)cc1 [Example 68, 2-[(1S,2S)-2-hydroxycyclohexyl]-5-({4-[4-(methylsulfonyl)phenyl]piperazin-1-yl}methyl)-1,2-dihydro-3H-benzo[e]isoindol-3-one]  47 nM
4. COc1ccc(N2CCN(Cc3cc4c(c5ccccc35)CN([C@H]3CCCC[C@@H]3O)C4=O)CC2)cc1 [Example 69, 2-[(1S,2S)-2-hydroxycyclohexyl]-5-{[4-(4-methoxyphenyl)piperazin-1-yl]methyl}-1,2-dihydro-3H-benzo[e]isoindol-3-one]  49 nM
5. O=C1c2cc(CN3CCN(c4ccc(F)cc4)CC3)c3ccccc3c2CN1[C@H]1CCCC[C@@H]1O [Example 67, 5-{[4-(4-fluorophenyl)piperazin-1-yl]methyl}-2-[(1S,2S)-2-hydroxycyclohexyl]-1,2-dihydro-3H-benzo[e]isoindol-3-one]  67 nM
6. O=C1c2cc(CN3CCN(c4ccccc4)CC3)c3ccccc3c2CN1[C@H]1CCCC[C@@H]1O [Example 72, 2-[(1S,2S)-2-hydroxycyclohexyl]-5-[(4-phenylpiperazin-1-yl)methyl]-1,2-dihydro-3H-benzo[e]isoindol-3-one]  72 nM
7. O=C1c2cc(CN3CCN(c4ccccn4)CC3)c3ccccc3c2CN1c1ccccc1F [Example 75, 2-(2-fluorophenyl)-5-{[4-(pyridin-2-yl)piperazin-1-yl]methyl}-1,2-dihydro-3H-benzo[e]isoindol-3-one]  78 nM
8. COc1ccc(N2CCN(Cc3cc4c(c5ccccc35)CN([C@H]3CCCC[C@@H]3O)C4=O)C(C)C2)cc1 (stereo partly drawn) [Example 70, 2-[(1S,2S)-2-hydroxycyclohexyl] 5-{[4-(4-methoxyphenyl)-2-methylpiperazin-1-yl]methyl}-1,2-dihydro-3H-benzo[e]isoindol-3-one]  150 nM
9. CC1c2c(cc(CN3CCN(c4ccccc4)CC3)c3ccccc23)C(=O)N1[C@@H]1CCCC[C@@H]1O (stereo partly drawn) [Example 73, 2-[(1R,2S)-2-hydroxycyclohexyl]-1-methyl-5-[(4-phenylpiperazin-1-yl)methyl]-1,2-dihydro-3H-benzo[e]isoindol-3-one]  198 nM
10. O=C1c2cc(CN3CCN(c4ccncc4)CC3)c3ccccc3c2CN1[C@H]1CCCC[C@@H]1O [Example 77, 2-[(1S,2S)-2-hydroxycyclohexyl]-5-[(4-pyridin-4-ylpiperazin-1-yl)methyl]-1,2-dihydro-3H-benzo[e]isoindol-3-one]  213 nM
11. Cn1cc(N2CCN(Cc3cc4c(c5ccccc35)CN(c3ccccc3F)C4=O)CC2)cn1 [Example 66, 2-(2-fluorophenyl)-5-{[4-(1-methyl-1H-pyrazol-4-yl)piperazin-1-yl]methyl}-1,2-dihydro-3H-benzo[e]isoindol-3-one]  273 nM
12. COc1ccc(N2CC3CC2CN3Cc2cc3c(c4ccccc24)CN([C@H]2CCCC[C@@H]2O)C3=O)cc1 (stereo partly drawn) [Example 71]  315 nM
13. CC1CN(Cc2cc3c(c4ccccc24)CN([C@H]2CCCC[C@@H]2O)C3=O)CCN1c1ccccc1 (stereo partly drawn) [Example 78, 2-[(1S,2S)-2-hydroxycyclohexyl]-5-[(3-methyl-4-phenylpiperazin-1-yl)methyl]-1,2-dihydro-3H-benzo[e]isoindol-3-one]  370 nM
14. Cn1cc(N2CCN(Cc3cc4c(c5ccccc35)CN([C@@H]3CCCC[C@H]3O)C4=O)CC2)cn1 [Example 81, 2-[(1R,2R)-2-hydroxycyclohexyl]-5-{[4-(1-methyl-1H-pyrazol-4-yl)piperazin-1-yl]methyl}-1,2-dihydro-3H-benzo[e]isoindol-3-one]  496 nM
15. O=C1c2cc(CN3CCN(c4ccc5ncsc5c4)CC3)c3ccccc3c2CN1c1ccccc1F [Example 85, 5-{[4-(1,3-benzothiazol-6-yl)piperazin-1-yl]methyl}-2-(2-fluorophenyl)-1,2-dihydro-3H-benzo[e]isoindol-3-one]  1140 nM
16. O=C1c2cc(CN3CCc4ccccc4C3c3ccncc3)c3ccccc3c2CN1c1ccccc1F (stereo not drawn) [Example 65, 2-(2-fluorophenyl)-5-{[1-(pyridin-4-yl)-3,4-dihydroisoquinolin-2(1H)-yl]methyl}-1,2-dihydro-3H-benzo[e]isoindol-3-one]  1370 nM
17. Cn1cc(N2CCN(Cc3cc4c(c5ccccc35)CN(C3CCOCC3)C4=O)CC2)cn1 [Example 82, 5-{[4-(1-methyl-1H-pyrazol-4-yl)piperazin-1-yl]methyl}-2-(tetrahydro-2H-pyran-4-yl)-1,2-dihydro-3H-benzo[e]isoindol-3-one]  1590 nM
18. Cn1cc(N2CCN(Cc3cc4c(c5ccccc35)CN([C@H]3CCCC[C@@H]3O)C4=O)CC2)cn1 [Example 80, 2-[(1S,2S)-2-hydroxycyclohexyl]-5-{[4-(1-methyl-1H-pyrazol-4-yl)piperazin-1-yl]methyl}-1,2-dihydro-3H-benzo[e]isoindol-3-one]  1620 nM
19. O=C1c2cc(CN3CCN(c4cc5ccccc5cn4)CC3)c3ccccc3c2CN1c1ccccc1F [Example 84, 2-(2-fluorophenyl)-5-[(4-isoquinolin-3-ylpiperazin-1-yl)methyl]-1,2-dihydro-3H-benzo[e]isoindol-3-one]  3270 nM
20. Cn1cc(N2CCN(Cc3cc4c(c5ccccc35)CN(C3CCCOC3)C4=O)CC2)cn1 (stereo not drawn) [Example 83, 5-{[4-(1-methyl-1H-pyrazol-4-yl)piperazin-1-yl]methyl}-2-(tetrahydro-2H-pyran-3-yl)-1,2-dihydro-3H-benzo[e]isoindol-3-one]  3870 nM

Same assay, conditions: Table 2; CHOnfat/hM1 cells, FLIPR, EC20 acetylcholine (3 nM final); read-out: M1 Pot.

In order of rising EC50:
1. N#CC1CCN(Cc2cc3c(c4ncccc24)CN([C@H]2CCCC[C@@H]2O)C3=O)CC1 [Example 94, 1-({8-[(1S,2S)-2-hydroxycyclohexyl]-7-oxo-8,9-dihydro-7H-pyrrolo[3,4-h]quinolin-5-yl}methyl)piperidine-4-carbonitrile]  51 nM
2. CC1c2c(cc(CN3CCC(F)CC3)c3cccnc23)C(=O)N1[C@H]1CCCC[C@@H]1O (stereo partly drawn) [Example 93, 5-[(4-fluoropiperidin-1-yl)methyl]-8-[(1S,2S)-2-hydroxycyclohexyl]-9-methyl-8,9-dihydro-7H-pyrrolo[3,4-h]quinolin-7-one]  70 nM
3. N#CC1CCN(Cc2cc3c(c4ncccc24)CN([C@H]2CCCC[C@@H]2O)C3=O)CC1 [Example 92, 1-({8-[(1S,2S)-2-hydroxycyclohexyl]-7-oxo-8,9-dihydro-7H-pyrrolo[3,4-h]quinolin-5-yl}methyl)piperidine-4-carbonitrile]  72 nM
4. O=C1c2cc(CN3CCC(F)CC3)c3cccnc3c2CN1C1CCCCC1O (stereo not drawn) [Example 91, 5-[(4-fluoropiperidin-1-yl)methyl]-8-(2-hydroxycyclohexyl)-8,9-dihydro-7H-pyrrolo[3,4-h]quinolin-7-one]  88 nM
5. O=C1c2cc(CN3CCC(O)CC3)c3cccnc3c2CN1C1CCCCC1O (stereo not drawn) [Example 89, 8-(2-hydroxycyclohexyl)-5-[(4-hydroxypiperidin-1-yl)methyl]-8,9-dihydro-7H-pyrrolo[3,4-h]quinolin-7-one]  290 nM
6. O=C1c2cc(CN3CCC4(CC3)COc3ccccc34)c3cccnc3c2CN1C1CCCCC1O (stereo not drawn) [Example 95, 8-(2-hydroxycyclohexyl)-5-(1′H-spiro[1-benzofuran-3,4′-piperidin]-1′-ylmethyl)-8,9-dihydro-7H-pyrrolo[3,4-h]quinolin-7-one]  290 nM
7. O=C1c2cc(CN3CCC(C4CC4)CC3)c3cccnc3c2CN1C1CCCCC1O (stereo not drawn) [Example 90, 5-[(4-cyclopropylpiperidin-1-yl)methyl]-8-(2-hydroxycyclohexyl)-8,9-dihydro-7H-pyrrolo[3,4-h]quinolin-7-one]  1200 nM
8. O=C1c2cc(CN3CCCCC3)c3cccnc3c2CN1[C@H]1CCCC[C@@H]1O [Example 86, 8-[(1S,2S)-2-hydroxycyclohexyl]-5-(piperidin-1-ylmethyl)-8,9-dihydro-7H-pyrrolo[3,4-h]quinolin-7-one]  2900 nM
9. CCN(CC)Cc1cc2c(c3ncccc13)CN(C1CCCCC1O)C2=O (stereo not drawn) [Example 88, 5-[(diethylamino)methyl]-8-(2-hydroxycyclohexyl)-8,9-dihydro-7H-pyrrolo[3,4-h]quinolin-7-one]  4000 nM

— US9206200B2, “N-linked lactam M1 receptor positive allosteric mogulators” (Merck Sharp & Dohme Corp., priority 2011, dated 2015)
